Reference: patent US11814367B2, “Inhibitors of glycogen synthase 1 (GYS1) and methods of use thereof” (Maze Therapeutics, Inc., priority 2021, dated 2023)

These compounds were tested against hGYS1 enzyme (recombinant hGYS1/GN1 protein) (Homo sapiens (Human), UniProt P13807) (assay: GYS1 coupled enzyme assay (PK/LDH)). Settings: hGYS1/GN1 50 nM, UDP-Glucose 0.8 mM, G6P 1 mM; geometric mean of at least 2 runs.
Format: biochemical
Description: The GYS1 coupled enzyme assay is a kinetic biochemical assay that indirectly quantifies the rate of glycogen synthesis by coupling the conversion of GYS1 substrate UDP-glucose into UDP with downstream enzymatic reactions. UDP is released from UDP-glucose as glucose monomers are linked into the growing glycogen strand by GYS1. The coupled assay then proceeds with pyruvate kinase utilizing UDP and phospho(enol)pyruvate (PEP) to form pyruvate. Lactate dehydrogenase then converts pyruvate and NADH into lactate and NAD+. Oxidation of NADH to NAD+ can be measured continuously with a plate reader by quantifying the decrease in NADH absorbance at 340 nm over time.
Compounds that inhibit the hGYS1 enzyme and, subsequently, the downstream conversion of NADH to NAD+, were tested using assay ready plates (black, clear bottom 384 well plates) in a final DMSO reaction volume of 2.5% DMSO. The Assay Buffer contained 50 mM Tris pH 7.5, 2 mM MgCl2, and 100 mM KCl. Fresh stocks of BSA at a final concentration of 0.02% and TCEP at 1 mM were added before splitting buffer into hGYS1 buffer and substrate buffer. To the hGYS1 buffer, rabbit liver glycogen was added at a final concentration of 0.2% glycogen. Glucose-6-Phosphate was added at 1 mM, recombinant hGYS1/GN1 protein was added at 50 nM to the substrate buffer, phosphoenolpyruvate (PEP) was added at 2 mM, UDP-Glucose was added at 0.8 mM, NADH) was added at 0.6 mM, and Pyruvate Kinase/Lactate Dehydrogenase was added at 20 units/mL. The reaction was initiated by mixing hGYS1 buffer and substrate buffer at a 1:1 ratio. Both buffers were plated using a liquid dispensing device with hGYS1 buffer plated first followed by the substrate buffer. Plates were spun briefly to eliminate air bubbles and are immediately read in continuous mode at an absorbance of 340 nm, for 10 time points in one-minute increments, for a total of 10 minutes. The slope from these 10 time points was normalized to the positive and negative control wells. The duplicate % inhibition values are then averaged and fit to a Hill equation for dose response according to the Levenberg-Marquardt algorithm with the Hill equation maximum set to 100 and the minimum set to 0.
Unless otherwise specified, IC50 values are reported as the geometric mean of at least 2 assay runs on separate days. Each run represents the average of a technical replicate, where each compound was assayed twice in the same plate. […] A superscript “#” symbol in Table 2 indicates results from a single assay run.

Chain of hGYS1 enzyme (recombinant hGYS1/GN1 protein) (P13807 whole entry): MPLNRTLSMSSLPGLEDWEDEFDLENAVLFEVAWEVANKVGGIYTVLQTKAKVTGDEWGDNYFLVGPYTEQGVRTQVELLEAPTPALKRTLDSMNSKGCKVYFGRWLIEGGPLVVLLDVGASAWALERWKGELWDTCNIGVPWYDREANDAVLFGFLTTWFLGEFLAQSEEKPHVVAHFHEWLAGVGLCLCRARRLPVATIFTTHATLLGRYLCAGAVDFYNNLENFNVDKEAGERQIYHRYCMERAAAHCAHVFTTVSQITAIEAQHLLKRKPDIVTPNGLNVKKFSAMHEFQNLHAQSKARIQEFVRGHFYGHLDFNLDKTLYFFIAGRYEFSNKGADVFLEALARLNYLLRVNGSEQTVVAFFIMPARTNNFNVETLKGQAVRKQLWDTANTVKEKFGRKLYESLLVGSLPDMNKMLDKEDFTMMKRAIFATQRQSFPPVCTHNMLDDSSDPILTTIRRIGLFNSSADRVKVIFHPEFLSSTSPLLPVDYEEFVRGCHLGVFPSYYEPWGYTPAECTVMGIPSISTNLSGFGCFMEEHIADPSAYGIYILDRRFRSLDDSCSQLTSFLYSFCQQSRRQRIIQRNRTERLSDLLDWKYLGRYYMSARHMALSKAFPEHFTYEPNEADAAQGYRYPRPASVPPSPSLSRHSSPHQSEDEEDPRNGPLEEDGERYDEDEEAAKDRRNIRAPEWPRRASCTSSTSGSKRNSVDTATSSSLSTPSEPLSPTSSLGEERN
Chain of hGYS1 enzyme (recombinant hGYS1/GN1 protein) (P46976 whole entry partner): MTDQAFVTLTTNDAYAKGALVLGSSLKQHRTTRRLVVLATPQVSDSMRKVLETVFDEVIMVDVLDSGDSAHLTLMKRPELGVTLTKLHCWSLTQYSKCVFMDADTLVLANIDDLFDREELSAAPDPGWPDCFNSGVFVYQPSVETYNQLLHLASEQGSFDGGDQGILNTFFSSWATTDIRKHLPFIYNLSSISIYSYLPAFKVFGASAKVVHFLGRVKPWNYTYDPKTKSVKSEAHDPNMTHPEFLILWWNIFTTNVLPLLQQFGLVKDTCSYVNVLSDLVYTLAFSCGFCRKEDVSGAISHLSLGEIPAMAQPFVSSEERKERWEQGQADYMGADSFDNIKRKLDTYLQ

SMILES	IC50 [nM]
CC(C)c1ccc([C@@H](NC(=O)[C@@H]2C[C@@H](F)CN2C(=O)CN2CCNCC2)c2ccccc2)cc1 [Compound 234, (2S,4R)-4-fluoro-N-[(S)-phenyl[4-(propan-2-yl)phenyl]methyl]-1-[2-(piperazin-1-yl)acetyl]pyrrolidine-2-carboxamide]	695
CC(C)c1ccc([C@@H](NC(=O)[C@@H]2C[C@@H](F)CN2C(=O)c2cnco2)c2ccccc2)cc1 [Compound 12, (2S,4R)-4-fluoro-1-(1,3-oxazole-5-carbonyl)-N-[(S)-phenyl[4-(propan-2-yl)phenyl]methyl]pyrrolidine-2-carboxamide]	415
CC(=O)N1C[C@]2(C(=O)N3C[C@H](F)C[C@H]3C(=O)N[C@@H](c3ccccc3)c3ccc(C(C)C)cc3)CC1CO2 [Compound 150, (2S,4R)-1-[(1S)-5-acetyl-2-oxa-5-azabicyclo[2.2.1]heptane-1-carbonyl]-4-fluoro-N-[(S)-phenyl[4-(propan-2-yl)phenyl]methyl]pyrrolidine-2-carboxamide]	554
O=C(N[C@@H](c1ccccc1)c1ccc(C2CC2)c(F)n1)[C@@H]1[C@@H](O)[C@H](F)CN1C(=O)Cn1nnnc1C(F)F [Compound 763, (2S,3R,4R)-N-[(S)-(5-cyclopropyl-6-fluoropyridin-2-yl)(phenyl)methyl]-1-{2-[5-(difluoromethyl)-1H-1,2,3,4-tetrazol-1-yl]acetyl}-4-fluoro-3-hydroxypyrrolidine-2-carboxamide]	466
CC(=O)N1CCO[C@@H](C)[C@@H]1C(=O)N1C[C@H](F)C[C@H]1C(=O)N[C@@H](c1ccccc1)c1ccc(C(C)C)cc1 [Compound 159, (2S,4R)-1-[(2S,3R)-4-acetyl-2-methylmorpholine-3-carbonyl]-4-fluoro-N-[(S)-phenyl[4-(propan-2-yl)phenyl]methyl]pyrrolidine-2-carboxamide]	740
CC(=O)Nc1cccc([C@H](NC(=O)[C@@H]2C[C@@H](F)CN2C(=O)Cc2cn(C)nn2)c2ccc(C(C)C)cc2)c1 [Compound 649, (2S,4R)-N-[(R)-(3-acetamidophenyl) [4-(propan-2-yl)phenyl]methyl]-4-fluoro-1-[2-(1-methyl-1H-1,2,3-triazol-4-yl)acetyl]pyrrolidine-2-carboxamide]	483
CC(C)c1ccc([C@@H](NC(=O)[C@@H]2C[C@@H](F)CN2C(=O)Cc2cc[nH]n2)c2ccccc2)cc1 [Compound 19, (2S,4R)-4-fluoro-N-[(S)-phenyl[4-(propan-2-yl)phenyl]methyl]-1-[2-(1H-pyrazol-5-yl)acetyl]pyrrolidine-2-carboxamide]	47
CC(=O)N1CC(F)(C(=O)N2C[C@H](F)C[C@H]2C(=O)N[C@@H](c2ccccc2)c2ccc(C(C)C)cc2)C1 [Compound 143, (2S,4R)-1-(1-acetyl-3-fluoroazetidine-3-carbonyl)-4-fluoro-N-[(S)-phenyl[4-(propan-2-yl)phenyl]methyl]pyrrolidine-2-carboxamide]	323
CC(=O)N1[C@@H](C)CC[C@H]1C(=O)N[C@@H](c1ccccc1)c1ccc(C2CC2)c(F)c1 [Compound 419, (2S,5S)-1-acetyl-N-[(S)-(4-cyclopropyl-3-fluorophenyl)(phenyl)methyl]-5-methylpyrrolidine-2-carboxamide]	2190
CC(C)c1ccc([C@@H](NC(=O)[C@@H]2C[C@@H](F)CN2C(=O)Cn2cc(Cl)cn2)c2ccccc2)cc1 [Compound 20, (2S,4R)-1-[2-(4-chloro-1H-pyrazol-1-yl)acetyl]-4-fluoro-N-[(S)-phenyl[4-(propan-2-yl)phenyl]methyl]pyrrolidine-2-carboxamide]	46
CC(=O)N1C[C@H](F)C[C@H]1C(=O)N[C@@H](c1cccc(-c2nnc[nH]2)c1)c1ccc(C(C)C)c(F)n1 (single isomer, unassigned) [Compound 688, (2S,4R)—N—((S) or (R)-(3-(4H-1,2,4-triazol-3-yl)phenyl)(6-fluoro-5-isopropylpyridin-2-yl)methyl)-1-acetyl-4-fluoropyrrolidine-2-carboxamide]	106
CC(C)CNC(=O)C(=O)N1C[C@H](F)C[C@H]1C(=O)N[C@@H](c1ccccc1)c1ccc(C(C)C)cc1 [Compound 111, (2S,4R)-4-fluoro-1-{[(2-methylpropyl)carbamoyl]carbonyl}-N-[(S)-phenyl[4-(propan-2-yl)phenyl]methyl]pyrrolidine-2-carboxamide]	1080
CC(=O)N1CCC2(CC2C(=O)N2C[C@H](F)C[C@H]2C(=O)N[C@@H](c2ccccc2)c2ccc(C(C)C)cc2)C1 (stereo partly drawn) [Compound 156, (2S,4R)-1-{5-acetyl-5-azaspiro[2.4]heptane-1-carbonyl}-4-fluoro-N-[(S)-phenyl[4-(propan-2-yl)phenyl]methyl]pyrrolidine-2-carboxamide]	304
CC(=O)N1CCCC(C)(C(=O)N2C[C@H](F)C[C@H]2C(=O)N[C@@H](c2ccccc2)c2ccc(C(C)C)cc2)CC1 (stereo partly drawn) [Compound 181, (2S,4R)-1-(1-acetyl-4-methylazepane-4-carbonyl)-4-fluoro-N-[(S)-phenyl[4-(propan-2-yl)phenyl]methyl]pyrrolidine-2-carboxamide]	449
CC(=O)N1CC(Oc2ccc(C(=O)N3C[C@H](F)C[C@H]3C(=O)N[C@@H](c3ccccc3)c3ccc(C(C)C)cc3)cc2)C1 [Compound 112, (2S,4R)-1-{4-[(1-acetylazetidin-3-yl)oxy]benzoyl}-4-fluoro-N-[(S)-phenyl[4-(propan-2-yl)phenyl]methyl]pyrrolidine-2-carboxamide]	854
CC(C)c1ccc([C@@H](NC(=O)[C@@H]2CCCN2C(=O)CO)c2ccccc2)cc1 [Compound 211, (2S)-1-(2-hydroxyacetyl)-N-[(S)-phenyl[4-(propan-2-yl)phenyl]methyl]pyrrolidine-2-carboxamide]	469
CC(Cc1ccccn1)C(=O)N1C[C@H](F)C[C@H]1C(=O)N[C@@H](c1ccccc1)c1ccc(C(C)C)cc1 (stereo partly drawn) [Compound 132, (2S,4R)-4-fluoro-1-[2-methyl-3-(pyridin-2-yl)propanoyl]-N-[(S)-phenyl[4-(propan-2-yl)phenyl]methyl]pyrrolidine-2-carboxamide]	99
CC(C)c1ccc([C@@H](NC(=O)[C@@H]2C[C@@H](F)CN2C(=O)CCc2ncc[nH]2)c2ccccc2)cc1 [Compound 47, (2S,4R)-4-fluoro-1-[3-(1H-imidazol-2-yl)propanoyl]-N-[(S)-phenyl[4-(propan-2-yl)phenyl]methyl]pyrrolidine-2-carboxamide]	138
CC(=O)NCC(=O)N1CCC[C@H]1C(=O)N[C@@H](c1ccccc1)c1ccc(C(C)C)cc1 [Compound 212, (2S)-1-(2-acetamidoacetyl)-N-[(S)-phenyl[4-(propan-2-yl)phenyl]methyl]pyrrolidine-2-carboxamide]	95
CC(=O)N1C[C@H]2CC[C@@H](C1)[C@@H]2C(=O)N1C[C@H](F)C[C@H]1C(=O)N[C@@H](c1ccccc1)c1ccc(C(C)C)cc1 [Compound 173, (2S,4R)-1-[(1R,5S,8S)-3-acetyl-3-azabicyclo[3.2.1]octane-8-carbonyl]-4-fluoro-N-[(S)-phenyl[4-(propan-2-yl)phenyl]methyl]pyrrolidine-2-carboxamide]	844
COC1(CC(=O)N2C[C@H](F)C[C@H]2C(=O)N[C@@H](c2ccccc2)c2ccc(C(C)C)cc2)CN(C(C)=O)C1 [Compound 161, (2S,4R)-1-[2-(1-acetyl-3-methoxyazetidin-3-yl)acetyl]-4-fluoro-N-[(S)-phenyl[4-(propan-2-yl)phenyl]methyl]pyrrolidine-2-carboxamide]	374
CC(=O)N1CCC2(CC(C(=O)N3C[C@H](F)C[C@H]3C(=O)N[C@@H](c3ccccc3)c3ccc(C(C)C)cc3)=NO2)C1 (stereo partly drawn) [Compound 4, (2S,4R)-{7-acetyl-1-oxa-2,7-diazaspiro[4.4]non-2-ene-3-carbonyl}-4-fluoro-N-[(S)-phenyl[4-(propan-2-yl)phenyl]methyl]pyrrolidine-2-carboxamide]	998
CC(C)c1ccc([C@@H](NC(=O)[C@@H]2C[C@@H](F)CN2C(=O)C(C)(C)O)c2ccccc2)cc1F [Compound 327, (2S,4R)-4-fluoro-N-[(S)-[3-fluoro-4-(propan-2-yl)phenyl](phenyl)methyl]-1-(2-hydroxy-2-methylpropanoyl)pyrrolidine-2-carboxamide]	121
CC(C)c1ccc([C@H](NC(=O)[C@@H]2C[C@@H](F)CN2C(=O)Cc2cnn[nH]2)c2cccc(F)c2)cc1F [Compound 647, (2S,4R)-4-fluoro-N-[(R)-[3-fluoro-4-(propan-2-yl)phenyl](3-fluorophenyl)methyl]-1-[2-(1H-1,2,3-triazol-5-yl)acetyl]pyrrolidine-2-carboxamide]	1640
